# From patent publication US20090076152A1, “Novel Compounds Active as Muscarinic Receptor Antagonists” (priority 2007, published 2009)
# Molecular target: T1, human muscarinic M3 receptor (Homo sapiens, UniProt P20309)
# T1 construct: expressed in transfected cells
# Experiment: hM3 β-Lac potency assay (NFAT-Betalactamase reporter in CHO-K1 cells)
# Conditions: CHO cells recombinantly expressing human M3, NFAT β-lactamase reporter; inhibition of 80 nM carbamyl choline signal, 4 h; IC50 converted to Ki by Cheng-Prusoff; read-out: Cell based β-lactamase M3 Ki
# Procedure: M3 potency was determined in CHO-K1 cells transfected with the NFAT-Betalactamase gene. CHO (Chinese Hamster Ovary) cells recombinantly expressing the human muscarinic M3 receptor were transfected with the NFAT_β-Lac_Zeo plasmid. Cells were grown in DMEM with Glutamax-1, supplemented with 25 mM HEPES(Life Technologies 32430-027), containing 10% FCS (Foetal Calf Serum; Sigma F-7524), […] Sodium pyruvate (Sigma S-8636), NEM (non-Essential Amino Acids; Invitrogen 11140-035) and 200 μg/ml Zeocin (Invitrogen R250-01).
# Cells were harvested for assay when they reached 80-90% confluency using enzyme free cell Dissociation Solution (Life technologies 13151-014) incubated with the cells for 5 min at 37° C. in an atmosphere containing 5% CO2. Detached cells were collected in warmed growth media and centrifuged at 2000 rpm for 10 min, washed in PBS (Phosphate Buffered Saline; Life Technologies 14190-094) and centrifuged again as just described. The cells were re-suspended at 2×10^5 cells/ml in growth medium (composition as described above). 20 μl of this cell suspension was added to each well of a 384 well black clear bottomed plate (Greiner Bio One 781091-PFI). The assay buffer used was PBS supplemented with 0.05% Pluronic F-127 (Sigma 9003-11-6) and 2.5% DMSO. Muscarinic M3 receptor signalling was stimulated using 80 nM carbamyl choline (Aldrich N240-9) incubated with the cells for 4 h at 37° C./5% CO2 and monitored at the end of the incubation period using a Tecan SpectraFluor+ plate reader (λ—excitation 405 nm, emission 450 nm and 503 nm). M3 receptor antagonists under test were added to the assay at the beginning of the 4 h incubation period and compound activity measured as the concentration dependent inhibition of the carbamyl choline induced signal. Inhibition curves were plotted and IC50 values generated using a 4-parameter sigmoid fit and converted to Ki values using the Cheng-Prusoff correction and the KD value for carbamyl choline in the assay.
# T1 sequence (P20309 whole entry): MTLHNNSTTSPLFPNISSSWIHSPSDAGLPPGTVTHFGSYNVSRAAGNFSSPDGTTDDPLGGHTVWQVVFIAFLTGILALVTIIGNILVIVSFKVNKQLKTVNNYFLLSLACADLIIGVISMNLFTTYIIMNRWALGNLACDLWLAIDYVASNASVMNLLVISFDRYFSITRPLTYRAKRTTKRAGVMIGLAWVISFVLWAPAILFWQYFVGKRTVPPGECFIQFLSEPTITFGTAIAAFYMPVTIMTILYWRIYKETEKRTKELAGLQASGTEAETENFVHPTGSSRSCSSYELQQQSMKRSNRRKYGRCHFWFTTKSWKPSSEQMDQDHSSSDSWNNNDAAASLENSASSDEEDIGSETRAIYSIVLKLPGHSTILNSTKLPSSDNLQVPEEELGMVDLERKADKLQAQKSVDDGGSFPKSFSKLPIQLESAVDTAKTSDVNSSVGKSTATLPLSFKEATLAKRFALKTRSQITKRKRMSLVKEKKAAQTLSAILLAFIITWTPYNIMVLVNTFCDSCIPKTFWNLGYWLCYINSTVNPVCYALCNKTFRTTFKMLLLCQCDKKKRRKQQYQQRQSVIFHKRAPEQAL
row,Structure (SMILES),Ki [nM]
1,"CC(C)N(CC[C@H](c1ccccc1)c1cc(CCOc2ccc(CCNCc3cc(F)c(O)c(F)c3)cc2)ccc1O)C(C)C [Example 15, 4-{[2-(4-{2-[3-((1R)-3-Diisopropylamino-1-phenyl-propyl)-4-hydroxy-phenyl]-ethoxy}-phenyl)-ethylamino]-methyl}-2,6-difluoro-phenol]",1.55
2,"CC(C)N(CC[C@H](c1ccccc1)c1cc(CCOc2ccc(CCNCc3cccc(O)c3F)cc2)ccc1O)C(C)C [Example 19, 3-[({2-[4-(2-{3-[(1R)-3-(diisopropylamino)-1-phenylpropyl]-4-hydroxyphenyl}ethoxy)phenyl]ethyl}amino)methyl]-2-fluorophenol]",2.69
3,"CC(C)N(CC[C@H](c1ccccc1)c1cc(CCOc2ccc(CCNC(=O)c3ccc(F)c(O)c3)cc2)ccc1O)C(C)C [Example 25, 4-Fluoro-N-[2-(4-{2-[3-((1R)-3-diisopropylamino-1-phenyl-propyl)-4-hydroxy-phenyl]-ethoxy}-phenyl)-ethyl]-3-hydroxy-benzamide]",0.751
4,"CC(C)N(CC[C@H](c1ccccc1)c1cc(CCOc2ccc(CCNCc3cc(Cl)c(O)c(Cl)c3)cc2)ccc1O)C(C)C [Example 16, 2,6-Dichloro-4-{[2-(4-{2-[3-((1R)-3-diisopropylamino-1-phenyl-propyl)-4-hydroxy-phenyl]-ethoxy}-phenyl)-ethylamino]-methyl}-phenol]",> 6.87
5,"CC(C)N(CC[C@H](c1ccccc1)c1cc(CCOc2ccc(CCNC(=O)c3cc(Cl)c(O)c(Cl)c3)cc2)ccc1O)C(C)C [Example 24, 3,5-Dichloro-N-[2-(4-{2-[3-((1R)-3-diisopropylamino-1-phenyl-propyl)-4-hydroxy-phenyl]-ethoxy}-phenyl)-ethyl]-4-hydroxy-benzamide]",2.15
6,"CC(C)N(CC[C@H](c1ccccc1)c1cc(CCOc2ccc(CCNCc3cc(F)c(O)c(Cl)c3)cc2)ccc1O)C(C)C [Example 20, 2-Chloro-4-{[2-(4-{2-[3-((1R)-3-diisopropylamino-1-phenyl-propyl)-4-hydroxy-phenyl]-ethoxy}-phenyl)-ethylamino]-methyl}-6-fluoro-phenol]",> 5.89
7,"CC(C)N(CC[C@H](c1ccccc1)c1cc(CCOc2ccc(CCNC3CCCCC3)cc2)ccc1O)C(C)C [Example 11, 4-{2-[4-(2-Cyclohexylamino-ethyl)-phenoxy]-ethyl}-2-((1R)-3-diisopropylamino-1-phenyl-propyl)-phenol]",6.06
8,"CC(C)N(CC[C@H](c1ccccc1)c1cc(CCOc2ccc(CCNCc3cccc(O)c3)cc2)ccc1O)C(C)C [Example 18, 2-((1R)-3-Diisopropylamino-1-phenyl-propyl)-4-(2-{4-[2-(3-hydroxy-benzylamino)-ethyl]-phenoxy}-ethyl)-phenol]",> 10.4
9,"CC(C)N(CC[C@H](c1ccccc1)c1cc(CCOc2ccc(CCNS(=O)(=O)c3ccc(O)cc3)cc2)ccc1O)C(C)C [Example 27, N-[2-(4-{2-[3-((1R)-3-diisopropylamino-1-phenyl-propyl)-4-hydroxy-phenyl]-ethoxy}-phenyl)-ethyl]-4-hydroxy-benzenesulfonamide]",1.32
10,"CC(C)N(CC[C@H](c1ccccc1)c1cc(CCOc2ccc(CCNCc3ccccc3)cc2)ccc1O)C(C)C [Example 9, 4-{2-[4-(2-Benzylamino-ethyl)-phenoxy]-ethyl}-2-((1R)-3-diisopropylamino-1-phenyl-propyl)-phenol]",0.785
11,"CC(C)N(CC[C@H](c1ccccc1)c1cc(CCOc2ccc(CCNC(=O)Cc3ccc(O)c(Cl)c3)cc2)ccc1O)C(C)C [Example 2, 2-(3-Chloro-4-hydroxy-phenyl)-N-[2-(4-{2-[3-((1R)-3-diisopropylamino-1-phenyl-propyl)-4-hydroxy-phenyl]-ethoxy}-phenyl)-ethyl]-acetamide]",1.7
12,"CC(C)N(CC[C@H](c1ccccc1)c1cc(CCOc2ccc(CCNC(=O)c3ccc(O)c(Cl)c3)cc2)ccc1O)C(C)C [Example 1, 3-Chloro-N-[2-(4-{2-[3-((1R)-3-diisopropylamino-1-phenyl-propyl)-4-hydroxy-phenyl]-ethoxy}-phenyl)-ethyl]-4-hydroxy-benzamide]",0.512
13,"CC(C)N(CC[C@H](c1ccccc1)c1cc(CCOc2ccc(CCNC(=O)c3ccc(O)cc3Cl)cc2)ccc1O)C(C)C [Example 7, 2-Chloro-N-[2-(4-{2-[3-((1R)-3-diisopropylamino-1-phenyl-propyl)-4-hydroxy-phenyl]-ethoxy}-phenyl)-ethyl]-4-hydroxy-benzamide]",0.727
14,"CC(C)N(CC[C@H](c1ccccc1)c1cc(CCOc2ccc(CCNCc3cc(F)cc(F)c3O)cc2)ccc1O)C(C)C [Example 22, 2-{[2-(4-{2-[3-((1R)-3-Diisopropylamino-1-phenyl-propyl)-4-hydroxy-phenyl]-ethoxy}-phenyl)-ethylamino]-methyl}-4,6-difluoro-phenol]",7.11
15,"CC(C)N(CC[C@H](c1ccccc1)c1cc(CCOc2ccc(CCNC(=O)c3ccc(O)cc3)cc2)ccc1O)C(C)C [Example 26, 4-Hydroxy-N-[2-(4-{2-[3-((1R)-3-diisopropylamino-1-phenyl-propyl)-4-hydroxy-phenyl]-ethoxy}-phenyl)-ethyl]-benzamide]",0.705
